Assays:
Experiment in all cases: relative viability (nuclei count vs DMSO), 5 days (fraction); higher = more cells survive
Selisistat + Foretinib = compound: C1CC(C2=C(C1)C3=C(N2)C=CC(=C3)Cl)C(=O)N [Selisistat] + COc1cc2c(Oc3ccc(NC(=O)C4(C(=O)Nc5ccc(F)cc5)CC4)cc3F)ccnc2cc1OCCCN1CCOCC1 [Foretinib] (partner 0.25 µM)
How it was run: (§1)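 Values are medians from duplicate plates. Each reflects relative viability, defined as the nuclei count of treated wells over that of vehicle wells. Lung cancer cell lines in 1536-well plates were pin-tool dosed one day after seeding with one drug alone or with a fixed anchor-drug dose plus five library-drug doses (not always all listed) in √10 steps, then fixed, stained and imaged at 4× after 5 days.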

Selisistat + Crizotinib = compound: C1CC(C2=C(C1)C3=C(N2)C=CC(=C3)Cl)C(=O)N [Selisistat] + C[C@@H](Oc1cc(-c2cnn(C3CCNCC3)c2)cnc1N)c1c(Cl)ccc(F)c1Cl [Crizotinib] (partner 1 µM)
How it was run: as §1

Selisistat + Linsitinib = compound: C1CC(C2=C(C1)C3=C(N2)C=CC(=C3)Cl)C(=O)N [Selisistat] + C[C@]1(O)C[C@@H](c2nc(-c3ccc4ccc(-c5ccccc5)nc4c3)c3c(N)nccn32)C1 [Linsitinib] (partner 1 µM)
How it was run: as §1

Serdemetan + Pictilisib = compound: c1ccc2c(CCNc3ccc(Nc4ccncc4)cc3)c[nH]c2c1 [Serdemetan] + CS(=O)(=O)N1CCN(Cc2cc3nc(-c4cccc5[nH]ncc45)nc(N4CCOCC4)c3s2)CC1 [Pictilisib] (partner 1 µM)
How it was run: as §1

Row | Cell Line | relative viability (Selisistat + Foretinib; first compound 0.4 µM) | relative viability (Selisistat + Foretinib; first compound 1.265 µM) | relative viability (Selisistat + Foretinib; first compound 4 µM) | relative viability (Selisistat + Foretinib; first compound 12.65 µM) | relative viability (Selisistat + Foretinib; first compound 40 µM) | relative viability (Selisistat + Crizotinib; first compound 0.4 µM) | relative viability (Selisistat + Crizotinib; first compound 1.265 µM) | relative viability (Selisistat + Crizotinib; first compound 4 µM) | relative viability (Selisistat + Crizotinib; first compound 12.65 µM) | relative viability (Selisistat + Crizotinib; first compound 40 µM) | relative viability (Selisistat + Linsitinib; first compound 0.4 µM) | relative viability (Selisistat + Linsitinib; first compound 1.265 µM) | relative viability (Selisistat + Linsitinib; first compound 4 µM) | relative viability (Selisistat + Linsitinib; first compound 12.65 µM) | relative viability (Selisistat + Linsitinib; first compound 40 µM) | relative viability (Serdemetan + Pictilisib; first compound 0.04 µM) | relative viability (Serdemetan + Pictilisib; first compound 0.1265 µM) | relative viability (Serdemetan + Pictilisib; first compound 0.4 µM) | relative viability (Serdemetan + Pictilisib; first compound 4 µM) | relative viability (Serdemetan + Pictilisib; first compound 1.265 µM)
1 | NCI-H3122 | 0.996 | 0.942 | 0.881 | 0.97 | 1.03 | 0.315 | 0.235 | 0.218 | 0.296 | 0.266 | 1.03 | 0.953 | 0.872 | 1.06 | 0.994 | 0.627 | 0.669 | 0.6 | 0.55 | 
2 | HCC-827 | 1.17 | 1.09 | 1.02 | 0.9 | 1.08 | 0.954 | 0.873 | 0.946 | 0.838 | 0.883 | 0.873 | 0.873 | 0.941 | 0.948 | 1.01 | 0.921 | 0.712 |  | 0.824 | 0.575
3 | SK-LU-1 | 0.883 | 0.811 | 0.865 | 0.813 | 0.825 | 1.02 | 0.987 | 1.1 | 1.01 | 1.09 | 1.18 | 1.28 | 1.35 | 1.1 | 1.04 | 0.572 | 0.47 | 0.713 | 0.407 | 0.494
4 | NCI-H1975 | 0.983 | 0.84 | 0.896 | 0.815 | 0.706 | 0.904 | 0.863 | 0.916 | 0.854 | 0.807 | 0.849 | 0.805 | 0.871 | 0.831 | 0.813 | 0.302 | 0.355 | 0.317 | 0.31 | 0.338
5 | NCI-H1703 | 0.338 | 0.336 | 0.365 | 0.356 | 0.313 | 0.578 | 0.556 | 0.626 | 0.559 | 0.904 | 0.316 | 0.703 | 0.627 | 0.724 | 0.932 | 0.213 | 0.278 | 0.3 | 0.232 | 0.271
6 | NCI-H1651 | 0.785 | 0.693 | 0.864 | 0.897 | 0.739 | 0.866 | 0.893 | 0.907 | 0.802 | 0.855 | 0.936 | 0.898 | 1.02 | 1.05 | 0.849 | 0.434 | 0.496 | 0.433 | 0.23 | 0.456

Reference: the supplement of paper PMC10307832
